Reference: PubChem BioAssay AID720570 (Broad Institute, 2013)
Calls of active or inactive are those of the source.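 Rule for the calls: active = cell-killing curve crosses a set limit at a concentration no more than twice the top valid dose; inconclusive = flat curve with a 30 to 70% loss, or a poor fit; inactive = signal rising instead of falling, and the rest.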

Tested on: TC71 Ewing sarcoma viability, CellTiter-Glo ATP, 72 h
Assay: cytotoxicity in EWS/Fli1-dependent TC71 cells – cell-based, luminescence, cherry-picked samples, retest, confirmation (AID 720570)

SMILES | AC35
C=C1C(=O)[C@@]23[C@H](O)C[C@@H]4C(C)(C)CC[C@H](O)[C@@]4(C)[C@@H]2CC[C@@H]1[C@H]3O | 9.15 µM
N#CC(=C1C=CC(=NO)C(Cl)=C1)c1ccccc1 | 6.4 µM
Cc1cc(C)cc(N2C(=O)NC(=O)/C(=C\C=C\c3ccco3)C2=O)c1 | 11.3 µM
COc1ccc(OC)c(/C=C/c2ccnc3ccccc23)c1 | 2.31 µM
C[C@@H]1CN([C@H](C)CO)C(=O)Cc2cc(N(C)C)ccc2O[C@H]1CN(C)Cc1ccc(C(=O)Nc2ccccc2N)cc1 | 13.6 µM
CC12CCC3C(CCC4(O)CC(O)CCC34C=NO)C1(O)CCC2C1=COC(=O)C1 (stereo not given) | 0.97 µM
Oc1c(Cl)cc(Cl)c(Cl)c1Cc1c(O)c(Cl)cc(Cl)c1Cl | 3.22 µM
C=C(C(=O)c1ccccc1)C(C)C(=C)C(=O)c1ccccc1 | 11.1 µM
COC(=O)C[C@@H]1CC[C@@H]2[C@H](COc3ccc(NC(=O)c4cc(C)on4)cc3C(=O)N2C)O1 | 12 µM
C[C@H]1CN([C@@H](C)CO)C(=O)c2cc(NC(=O)C3CCCCC3)ccc2O[C@H]1CN(C)Cc1ccc(C(=O)Nc2ccccc2N)cc1 | 11.1 µM
Cc1[nH]c(=S)sc1Cc1ccc(Cl)c(Cl)c1 | 0.898 µM
Cc1nc(N)nc(N)c1-c1ccc(Cl)c(Cl)c1 | 0.714 µM
Cc1ccccc1NC(=O)C(=Cc1ccc(C(=O)O)cc1)C(=O)Nc1ccccc1C | 6.67 µM
O=c1[nH]c(=O)n([C@H]2C[C@H](O)[C@@H](CO)O2)cc1F | 0.282 µM
COC(=O)C1=C(C)N(Cc2ccccc2C(F)(F)F)C(=NCc2ccc(OC)cc2)NC1c1ccc(C(F)(F)F)cc1 (stereo not given) | 13.5 µM
COc1ccc(-c2cn(-c3ccc(OC)cc3)c3[n+]2-c2ccccc2CC3)cc1 | 14.4 µM
O=C(C[C@H]1C[C@H]2c3cc(NS(=O)(=O)c4ccc(F)cc4)ccc3O[C@H]2[C@H](CO)O1)NCc1ccc(Oc2ccccc2)cc1 | 10.8 µM
Oc1c(C(c2ccc(Cl)cc2)N2CCCC2)cc(Cl)c2cccnc12 (stereo not given) | 6.32 µM
Oc1[nH]c2ccc(Br)cc2c1N=NC(=S)N1CCOCC1 | 2.87 µM
COc1ccc(C2=Nn3c(nnc3-c3ccccc3F)SC2)cc1OC1CCOC1 (stereo not given) | 4.93 µM
COc1ccc(-c2cnc3c(NC=O)cc(-c4ccccc4OC)cn23)cc1OC | 0.147 µM
CC(=O)OC1CC(OC2C(O)CC(OC3C(O)CC(OC4CCC5(C)C(CCC6C5CC(O)C5(C)C(C7=CC(=O)OC7)CCC65O)C4)OC3C)OC2C)OC(C)C1OC1OC(CO)C(O)C(O)C1O (stereo not given) | 0.589 µM
COc1ccc(/C=C(/C(=O)c2cccs2)N2C=CC=CC2=C(C#N)C#N)cc1 | 24.6 µM

SMILES | AC35
C(=N\Nc1nc2ccccc2s1)/c1ccccn1 | 3.07 µM
OCC1OC(n2cnc3c(NCc4ccco4)ncnc32)C(O)C1O (stereo not given) | 7.82 µM
C[C@@H]1CCCCO[C@H](CN(C)Cc2ccc(C(=O)Nc3ccccc3N)cc2)[C@@H](C)CN([C@H](C)CO)C(=O)c2cc(NS(=O)(=O)c3ccc(F)cc3)ccc2O1 | 12.9 µM
CCCCCCCCCCCCCCCCCCNc1ccn(C2OC(COP(=O)(O)OCC3OC(n4cc(F)c(=O)[nH]c4=O)CC3O)C(O)C2O)c(=O)n1 (stereo not given) | 2.77 µM
COc1cc(C(=O)N2CCC(N3CCN(C)CC3)CC2)ccc1Nc1ncc2c(n1)N(C)c1ccccc1C(=O)N2C | 11.4 µM
Nc1nc2cc3c(cc2cc1C(=O)NCCc1c[nH]c2ccccc12)OCO3 | 13.7 µM
Cc1ccc(/C=N/Nc2ccnc3cc(Cl)ccc23)c(C)c1 | 11.8 µM
C(=N\Nc1nc2ccccc2[nH]1)/c1ccccn1 | 4.84 µM
C[C@H]1CCCCO[C@H](CN(C)Cc2ccc(C(F)(F)F)cc2)[C@@H](C)CN([C@@H](C)CO)C(=O)c2cc(NC(=O)Nc3ccccc3)ccc2O1 | 12.4 µM
COc1ccccc1-c1ccc(OCCCN2CCC(C(O)(c3ccccc3)c3ccccc3)CC2)cc1 | 13.7 µM
CC1(C)N=C(N)N=C(N)N1c1ccc(CCCCc2ccccc2)cc1 | 1.39 µM
COc1cccc(O)c1CN1CCC(C(=O)Nc2ccc(-c3cccc(C)c3)cc2)CC1 | 20.7 µM
OCC1OC(n2ccc3c2ncn2ncnc32)C(O)C1O (stereo not given) | 3.83 µM
COc1ccc(OC)c(-c2nnc3n2N=C(c2ccc(OC)c(OC4CCCC4)c2)CS3)c1 | 3.81 µM
C[C@@H]1CN([C@@H](C)CO)C(=O)c2cc(NS(=O)(=O)c3ccc(Cl)cc3)ccc2O[C@@H]1CN(C)Cc1ccc(C(=O)Nc2ccccc2N)cc1 | 12.7 µM
C[C@@H]1CCCCO[C@H](CN(C)Cc2ccc(C(=O)Nc3ccccc3N)cc2)[C@@H](C)CN([C@@H](C)CO)C(=O)c2cc(NS(=O)(=O)c3ccc(Cl)cc3)ccc2O1 | 13.6 µM
C[C@@H]1CN([C@H](C)CO)C(=O)c2cccc(N(C)C)c2O[C@@H]1CN(C)Cc1ccc(C(=O)Nc2ccccc2N)cc1 | 16.4 µM
N#C[C@H]1N[C@H](CO)[C@H]1c1ccc(C#Cc2ccc(F)cc2)cc1 | 18.3 µM
C[C@@H]1CN([C@H](C)CO)C(=O)c2cc(NC(=O)CCCCCC(=O)Nc3ccccc3N)ccc2O[C@@H]1CN(C)Cc1ccc(Cl)c(Cl)c1 | 12.8 µM
CCN1CCS/C1=C\C=C\C1=[N+](CC)CCS1 | 9.96 µM
COc1cc(-c2coc3c(C(=O)NCc4ccc(C(F)(F)F)cc4)cccc23)ccc1O | 4.09 µM
CN1C2CCC1/C(=C/c1ccccn1)C(=O)/C2=C\c1ccccn1 | 1.43 µM
O=c1c2ccccc2nc(/C=C/c2cc(Br)ccc2O)n1CCCO | 13.8 µM

SMILES | AC35
O=C(NC1CCCC1)N1CCCCN2[C@@H](CO)[C@@H](c3ccc(/C=C/c4ccccc4)cc3)[C@@H]2C1 | 13.6 µM
COc1ccc(C(C)(O)c2nc(-c3cccc(F)c3)cs2)cc1 (stereo not given) | 12.8 µM
CCOC(=O)[C@]12Cc3ccc(C)cc3[C@H]1N(C1CCCCC1)C(=O)c1ccccc12 | 12.1 µM
C[C@@H]1CN([C@@H](C)CO)C(=O)c2cc(N(C)C)ccc2O[C@H]1CN(C)Cc1ccc(C(=O)Nc2ccccc2N)cc1 | 22 µM
Cc1ccc(S(=O)(=O)N(C)C[C@@H]2Oc3ccc(NC(=O)CCCCCC(=O)Nc4ccccc4N)cc3CC(=O)N([C@@H](C)CO)C[C@@H]2C)cc1 | > 21 µM (inactive)
COC(=O)C1=C(C)N(Cc2cccc(C(F)(F)F)c2)C(=NCc2ccc(OC)cc2)NC1c1cccc(F)c1 (stereo not given) | 10.9 µM
O=C(N/N=C/c1cccs1)c1n[nH]c2c1CCCC2 | 17.2 µM
COc1cccc(-c2cccc(-c3nc(C(=O)NCC(F)(F)F)cc4c3[C@H](CCO)N([S@@](=O)C(C)(C)C)C4)c2)c1 | 5.61 µM
O=C(O)c1ccc(N/N=C/c2ccc3nccnc3c2)cc1 | 16.3 µM
C[C@H](CO)N1C[C@H](C)[C@H](CN(C)Cc2ccc(C(=O)Nc3ccccc3N)cc2)Oc2ccc(NS(=O)(=O)c3cccs3)cc2C1=O | 8.61 µM
N#CC(C#N)=C1C=CC=CN1/C(=C\c1ccco1)C(=O)c1ccc(Cl)cc1 | 8.19 µM
COc1ccc(NC(=S)N=Nc2c(O)[nH]c3ccccc23)cc1 | 20.1 µM
COC1C(C)OC(OC2CC(C)(O)Cc3cc4c(c(O)c32)C(=O)c2c(O)cc3c(c2C4=O)OC2OC3(C)C(O)C(N(C)C)C2O)C(OC)C1(C)OC (stereo not given) | 0.169 µM
COc1ccc(C2=Nn3c(nnc3-c3ccccc3OC)SC2)cc1OCC1CC1 | 6.68 µM
CC(C)N1C/C(=C/c2cccnc2)C(=O)/C(=C/c2cccnc2)C1 | 22.6 µM
O=c1ccc2[n+]([O-])c3ccc(O)cc3oc-2c1 | 9.82 µM
CN=c1scc(-c2ccccc2F)n1/N=C/c1ccc(O)c(O)c1O | 16.1 µM
CC(C)CC#Cc1ccc([C@@H]2[C@@H](CO)N3CCCCN(S(=O)(=O)c4ccc(F)cc4)C[C@H]23)cc1 | 13.2 µM
COc1cc2oc3cc(C#Cc4ccc(N)cc4)ccc3c(=O)c2cc1OC | 6.86 µM
CC(C)N1C/C(=C/c2ccsc2)C(=O)/C(=C/c2ccsc2)C1 | 14 µM
Cc1cc(-c2nc3ccccc3s2)ccc1N | 17.7 µM
O=C1c2ccccc2C(=O)c2cc(N3CCCCC3)ccc21 | 23.3 µM
C[C@@H]1CN([C@@H](C)CO)C(=O)c2cccc(N(C)C)c2O[C@@H]1CN(C)Cc1ccc(C(=O)Nc2ccccc2N)cc1 | 21.1 µM

SMILES | AC35
O=C(Nc1ccccc1F)N1CCCCN2[C@H](CO)[C@H](c3ccc(/C=C/c4ccccc4)cc3)[C@H]2C1 | 10.6 µM
Cc1nc(N)nc(N)c1/C=C/C(C)(C)c1ccc(Cl)cc1 | < 0.011 µM
C[C@@H]1CN([C@@H](C)CO)C(=O)Cc2cc(N(C)C)ccc2O[C@@H]1CN(C)Cc1ccccc1 | 17.7 µM
COc1ccc(C(=O)NCCNc2nc3cc(C)cc(C)c3cc2C#N)c(OC)c1 | 15.9 µM
C[C@@H]1CN([C@@H](C)CO)C(=O)Cc2cc(NS(=O)(=O)c3cccs3)ccc2O[C@H]1CN(C)Cc1ccc(Cl)c(Cl)c1 | 12.3 µM
COc1ccc(-c2ccc3c(c2)[C@H]2[C@H](CCN2S(=O)(=O)c2ccc(OC)cc2)[C@@H](CO)N3C)cc1 | 4.48 µM
c1ccc(Nc2nnc(-c3ccc4c(c3)OCO4)o2)cc1 | 12 µM
O=C1NC(=S)NC(=O)C1=Cc1cccn1-c1ccc(O)cc1 | 22.2 µM
C[C@@H]1O[C@@H](O[C@H]2C[C@@H](O)[C@]3(CO)[C@H]4[C@H](O)C[C@]5(C)[C@@H](C6COC(=O)C6)CC[C@]5(O)[C@@H]4CC[C@]3(O)C2)[C@H](O)[C@H](O)[C@H]1O (stereo not given in full) | 4.19 µM
COc1ccc(OC)c(Cc2cnc3nc(N)nc(N)c3c2C)c1 | 0.0778 µM
OC[C@H]1[C@@H](c2ccc(C#CC3CCCC3)cc2)[C@@H]2CN(CCC(F)(F)F)CCCCN12 | 18 µM
BrC(=C\c1ccccc1)/C=N/n1cnnc1 | 14.5 µM
CCCCCCCCCCCCCCCCn1cc[n+](C)c1 | 10.2 µM
O=C(CCc1ccccc1)NC(c1cccs1)c1cc(Cl)c2cccnc2c1O (stereo not given) | 2.81 µM
COc1cccc(CN2CCC2(C)C(=O)Nc2cccc3cccnc23)c1F (stereo not given) | 14.5 µM
Cc1cccc(N2CCN(C3C(=O)Nc4ccccc4-n4nnnc43)CC2)c1C (stereo not given) | 13.9 µM
Nc1sc(-c2ccccc2)cc1-c1n[nH]c(=S)n1C1CCCCC1 | 4.99 µM
C[C@H]1O[C@@H](O[C@H]2[C@@H](O)C[C@H](O[C@H]3[C@@H](O)C[C@H](O[C@H]4CC[C@@]5(C)[C@H](CC[C@@H]6[C@@H]5C[C@@H](O)[C@]5(C)[C@@H](C7=CC(=O)OC7)CC[C@]65O)C4)O[C@@H]3C)O[C@@H]2C)C[C@H](O)[C@@H]1O | 0.283 µM
C[C@H](CO)N1C[C@H](C)[C@H](CN(C)CC2CCCCC2)Oc2ccc(NC(=O)CCCCCC(=O)Nc3ccccc3N)cc2CC1=O | 18.9 µM
C[C@H](CO)N1C[C@H](C)[C@H](CN(C)Cc2ccc(C(=O)Nc3ccccc3N)cc2)Oc2ccc(N(C)C)cc2C1=O | 11.9 µM
CCCCCCCCNC(C)C(O)c1ccc(SC(C)C)cc1 (stereo not given) | 12.1 µM
